# Data taken from PubChem BioAssay AID1963971 (Molecular Pharmacology Branch, DTP, NCI, 2024).
# Test system: 953936-095-R-J2-PDC spheroids with HUVEC/MSC, viability
# Experiment: Anticancer human tumor 953936-095-R-J2-PDC patient-derived cervical squamous cell carcinoma cell line growth inhibition [PI3K]
# Details: for IC50: curve of first compound; for viability, T/C: stronger effect = lower value
# Summary of the method: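 Complex 3D spheroids (cancer cells + endothelial HUVEC + mesenchymal stem cells); drug pairs of targeted agent x inavolisib/alpelisib/duvelisib/copanlisib; half-log series from ~Cmax, max 10 microM if Cmax unknown; endpoint viability.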
# 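Also: spheroids exposed to compounds for seven days before read-out.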
compound,measurement,setting,value
CC(=O)c1c(C)c2cnc(Nc3ccc(N4CCNCC4)cn3)nc2n(C2CCCC2)c1=O + CC(Nc1ncnc2nc[nH]c12)c1cc2cccc(Cl)c2c(=O)n1-c1ccccc1,IC50,second compound 0.0316 µM,> 100 nM
same,IC50,second compound 0.1 µM,> 100 nM
same,IC50,second compound 0.316 µM,> 100 nM
same,IC50,second compound 1 µM,> 100 nM
same,IC50,second compound 3.16 µM,> 100 nM
same,IC50,second compound 10 µM,> 100 nM
same,"viability, T/C","second compound 0.0316 µM, first compound 0.000316 µM",91.6%
same,"viability, T/C","second compound 0.0316 µM, first compound 0.001 µM",99.4%
same,"viability, T/C","second compound 0.0316 µM, first compound 0.00316 µM",105%
same,"viability, T/C","second compound 0.0316 µM, first compound 0.01 µM",93.9%
same,"viability, T/C","second compound 0.0316 µM, first compound 0.0316 µM",113%
same,"viability, T/C","second compound 0.0316 µM, first compound 0.1 µM",99.4%
same,"viability, T/C","second compound 0.1 µM, first compound 0.000316 µM",93%
same,"viability, T/C","second compound 0.1 µM, first compound 0.001 µM",96.4%
same,"viability, T/C","second compound 0.1 µM, first compound 0.00316 µM",105%
same,"viability, T/C","second compound 0.1 µM, first compound 0.01 µM",88.2%
same,"viability, T/C","second compound 0.1 µM, first compound 0.0316 µM",99.8%
same,"viability, T/C","second compound 0.1 µM, first compound 0.1 µM",92.1%
same,"viability, T/C","second compound 0.316 µM, first compound 0.000316 µM",97.8%
same,"viability, T/C","second compound 0.316 µM, first compound 0.001 µM",92.8%
same,"viability, T/C","second compound 0.316 µM, first compound 0.00316 µM",90.7%
same,"viability, T/C","second compound 0.316 µM, first compound 0.01 µM",86.5%
same,"viability, T/C","second compound 0.316 µM, first compound 0.0316 µM",103%
same,"viability, T/C","second compound 0.316 µM, first compound 0.1 µM",83%
same,"viability, T/C","second compound 1 µM, first compound 0.000316 µM",107%
same,"viability, T/C","second compound 1 µM, first compound 0.001 µM",98.4%
same,"viability, T/C","second compound 1 µM, first compound 0.00316 µM",85.6%
same,"viability, T/C","second compound 1 µM, first compound 0.01 µM",94%
same,"viability, T/C","second compound 1 µM, first compound 0.0316 µM",81.5%
same,"viability, T/C","second compound 1 µM, first compound 0.1 µM",80.2%
same,"viability, T/C","second compound 3.16 µM, first compound 0.000316 µM",81.4%
same,"viability, T/C","second compound 3.16 µM, first compound 0.001 µM",74.4%
same,"viability, T/C","second compound 3.16 µM, first compound 0.00316 µM",78.2%
same,"viability, T/C","second compound 3.16 µM, first compound 0.01 µM",83.5%
same,"viability, T/C","second compound 3.16 µM, first compound 0.0316 µM",74.8%
same,"viability, T/C","second compound 3.16 µM, first compound 0.1 µM",70.7%
same,"viability, T/C","second compound 10 µM, first compound 0.000316 µM",59.9%
same,"viability, T/C","second compound 10 µM, first compound 0.001 µM",68.6%
same,"viability, T/C","second compound 10 µM, first compound 0.00316 µM",55.5%
same,"viability, T/C","second compound 10 µM, first compound 0.01 µM",69.7%
same,"viability, T/C","second compound 10 µM, first compound 0.0316 µM",65.1%
same,"viability, T/C","second compound 10 µM, first compound 0.1 µM",51.3%
